Results as given in PMC8037182, “Solvothermal Synthesis of Multiple Dihydropyrimidinones at a Time as Inhibitors of Eg5” (Molecules, 2021).

Experiments:
Hela cell line = experiment: Cytotoxicity MTS assay, Hela cell line; type: cell-based; conditions: for OD490 Mean / OD490 Well 1 / OD490 Well 2 / OD490 Well 3: Hela cell line; for IC50: MTS assay, 24 h exposure;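 for OD490 Mean: blank control DMSO at 0.025% final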;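 for OD490 Well 1: blank control DMSO at 0.025% final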;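 for OD490 Well 2: blank control DMSO at 0.025% final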;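 for OD490 Well 3: blank control DMSO at 0.025% final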
In short: (§1)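 Absorbance at 490 nm after a 2 h MTS step at 37 °C gave cell viability. Before that, cells plated at 1000/well were treated for 24 h with compounds spanning 0.5–100 µM (final). IC50 values were fitted by non-linear regression of percent viability versus concentration.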

Caco-2 cell line = experiment: Cytotoxicity MTS assay, Caco-2 cell line; type: cell-based; conditions: for OD490 Mean / OD490 Well 1 / OD490 Well 2 / OD490 Well 3: Caco-2 cell line
In short: as §1

## CCOC(=O)C1=C(C)NC(=S)NC1c1cccc(O)c1 (stereo not drawn) [Monastrol, monastrol, reference compound]
Hela cell line; 0.5μM, first assay
  OD490 Mean: 2.4571
  OD490 Well 1: 2.3556
  OD490 Well 2: 2.5698
  OD490 Well 3: 2.4458
Hela cell line; 0.5μM, second assay
  OD490 Mean: 2.6032
  OD490 Well 1: 2.5874
  OD490 Well 2: 2.6523
  OD490 Well 3: 2.5698
Hela cell line; 0.5μM, third assay
  OD490 Mean: 2.6247
  OD490 Well 1: 2.6417
  OD490 Well 2: 2.5470
  OD490 Well 3: 2.6854
Hela cell line; 1μM, first assay
  OD490 Mean: 2.1630
  OD490 Well 1: 2.3365
  OD490 Well 2: 2.0131
  OD490 Well 3: 2.1393
Hela cell line; 1μM, second assay
  OD490 Mean: 2.5460
  OD490 Well 1: 2.5687
  OD490 Well 2: 2.5478
  OD490 Well 3: 2.5214
Hela cell line; 1μM, third assay
  OD490 Mean: 2.5064
  OD490 Well 1: 2.5748
  OD490 Well 2: 2.5214
  OD490 Well 3: 2.4230
Hela cell line; 10μM, first assay
  OD490 Mean: 2.2162
  OD490 Well 1: 2.1607
  OD490 Well 2: 2.2561
  OD490 Well 3: 2.2317
Hela cell line; 10μM, second assay
  OD490 Mean: 2.5812
  OD490 Well 1: 2.6541
  OD490 Well 2: 2.5541
  OD490 Well 3: 2.5354
Hela cell line; 10μM, third assay
  OD490 Mean: 2.5198
  OD490 Well 1: 2.6510
  OD490 Well 2: 2.2561
  OD490 Well 3: 2.6524
Hela cell line; 25μM, first assay
  OD490 Mean: 2.2546
  OD490 Well 1: 2.1835
  OD490 Well 2: 2.2875
  OD490 Well 3: 2.2928
Hela cell line; 25μM, second assay
  OD490 Mean: 2.5253
  OD490 Well 1: 2.6854
  OD490 Well 2: 2.3365
  OD490 Well 3: 2.5541
Hela cell line; 25μM, third assay
  OD490 Mean: 2.5000
  OD490 Well 1: 2.5874
  OD490 Well 2: 2.2584
  OD490 Well 3: 2.6541
Hela cell line; 50μM, first assay
  OD490 Mean: 2.5586
  OD490 Well 1: 2.7188
  OD490 Well 2: 2.4306
  OD490 Well 3: 2.5263
Hela cell line; 50μM, second assay
  OD490 Mean: 2.4511
  OD490 Well 1: 2.3541
  OD490 Well 2: 2.5478
  OD490 Well 3: 2.4514
Hela cell line; 50μM, third assay
  OD490 Mean: 2.6173
  OD490 Well 1: 2.5412
  OD490 Well 2: 2.6521
  OD490 Well 3: 2.6587
Hela cell line; 100μM, first assay
  OD490 Mean: 2.2182
  OD490 Well 1: 2.3464
  OD490 Well 2: 2.1470
  OD490 Well 3: 2.1612
Hela cell line; 100μM, second assay
  OD490 Mean: 2.5306
  OD490 Well 1: 2.4236
  OD490 Well 2: 2.6540
  OD490 Well 3: 2.5142
Hela cell line; 100μM, third assay
  OD490 Mean: 2.4597
  OD490 Well 1: 2.3654
  OD490 Well 2: 2.5784
  OD490 Well 3: 2.4352
Hela cell line; Homo sapiens, HeLa, 24 h
  IC50: > 150 µM
Hela cell line
  IC50: > 150 µM
Caco-2 cell line; 0.5μM, first assay
  OD490 Mean: 0.6317
  OD490 Well 1: 0.6883
  OD490 Well 2: 0.6260
  OD490 Well 3: 0.5808
Caco-2 cell line; 0.5μM, second assay
  OD490 Mean: 0.6461
  OD490 Well 1: 0.6307
  OD490 Well 2: 0.6567
  OD490 Well 3: 0.6508
Caco-2 cell line; 0.5μM, third assay
  OD490 Mean: 0.6299
  OD490 Well 1: 0.6325
  OD490 Well 2: 0.6000
  OD490 Well 3: 0.6531
Caco-2 cell line; 1μM, first assay
  OD490 Mean: 0.6316
  OD490 Well 1: 0.6697
  OD490 Well 2: 0.6037
  OD490 Well 3: 0.6213
Caco-2 cell line; 1μM, second assay
  OD490 Mean: 0.6874
  OD490 Well 1: 0.6746
  OD490 Well 2: 0.7532
  OD490 Well 3: 0.6345
Caco-2 cell line; 1μM, third assay
  OD490 Mean: 0.6466
  OD490 Well 1: 0.6332
  OD490 Well 2: 0.6854
  OD490 Well 3: 0.6211
Caco-2 cell line; 10μM, first assay
  OD490 Mean: 0.6065
  OD490 Well 1: 0.6414
  OD490 Well 2: 0.6303
  OD490 Well 3: 0.5477
Caco-2 cell line; 10μM, second assay
  OD490 Mean: 0.6609
  OD490 Well 1: 0.6953
  OD490 Well 2: 0.6962
  OD490 Well 3: 0.5912
Caco-2 cell line; 10μM, third assay
  OD490 Mean: 0.5909
  OD490 Well 1: 0.6012
  OD490 Well 2: 0.6583
  OD490 Well 3: 0.5132
Caco-2 cell line; 25μM, first assay
  OD490 Mean: 0.5366
  OD490 Well 1: 0.5485
  OD490 Well 2: 0.5284
  OD490 Well 3: 0.5329
Caco-2 cell line; 25μM, second assay
  OD490 Mean: 0.5966
  OD490 Well 1: 0.5969
  OD490 Well 2: 0.6213
  OD490 Well 3: 0.5715
Caco-2 cell line; 25μM, third assay
  OD490 Mean: 0.5678
  OD490 Well 1: 0.5784
  OD490 Well 2: 0.5810
  OD490 Well 3: 0.5439
Caco-2 cell line; 50μM, first assay
  OD490 Mean: 0.4955
  OD490 Well 1: 0.4127
  OD490 Well 2: 0.5627
  OD490 Well 3: 0.5110
Caco-2 cell line; 50μM, second assay
  OD490 Mean: 0.5572
  OD490 Well 1: 0.594
  OD490 Well 2: 0.5177
  OD490 Well 3: 0.5598
Caco-2 cell line; 50μM, third assay
  OD490 Mean: 0.5174
  OD490 Well 1: 0.5287
  OD490 Well 2: 0.5021
  OD490 Well 3: 0.5214
Caco-2 cell line; 100μM, first assay
  OD490 Mean: 0.4461
  OD490 Well 1: 0.4497
  OD490 Well 2: 0.4701
  OD490 Well 3: 0.4184
Caco-2 cell line; 100μM, second assay
  OD490 Mean: 0.5109
  OD490 Well 1: 0.5213
  OD490 Well 2: 0.5306
  OD490 Well 3: 0.4809
Caco-2 cell line; 100μM, third assay
  OD490 Mean: 0.4670
  OD490 Well 1: 0.4321
  OD490 Well 2: 0.4767
  OD490 Well 3: 0.4922
Caco-2 cell line; Homo sapiens, Caco-2, MTS assay, 24 h exposure
  IC50: 112 µM
